Results as given in article PMC9127186, “Molecular Basis Underlying Hepatobiliary and Renal Excretion of Phenolic Acids of Salvia miltiorrhiza Roots (Danshen)” (Frontiers in Pharmacology, 2022).
One block for each compound: values may come before it.

What was measured:
rat Bsep = target: T1, rat Bsep (Rattus norvegicus, UniProt O70127); assay: Vesicular transport assay, inside-out membrane vesicles expressing rat Bsep; conditions: 10 min
T1 sequence (O70127 1-1321): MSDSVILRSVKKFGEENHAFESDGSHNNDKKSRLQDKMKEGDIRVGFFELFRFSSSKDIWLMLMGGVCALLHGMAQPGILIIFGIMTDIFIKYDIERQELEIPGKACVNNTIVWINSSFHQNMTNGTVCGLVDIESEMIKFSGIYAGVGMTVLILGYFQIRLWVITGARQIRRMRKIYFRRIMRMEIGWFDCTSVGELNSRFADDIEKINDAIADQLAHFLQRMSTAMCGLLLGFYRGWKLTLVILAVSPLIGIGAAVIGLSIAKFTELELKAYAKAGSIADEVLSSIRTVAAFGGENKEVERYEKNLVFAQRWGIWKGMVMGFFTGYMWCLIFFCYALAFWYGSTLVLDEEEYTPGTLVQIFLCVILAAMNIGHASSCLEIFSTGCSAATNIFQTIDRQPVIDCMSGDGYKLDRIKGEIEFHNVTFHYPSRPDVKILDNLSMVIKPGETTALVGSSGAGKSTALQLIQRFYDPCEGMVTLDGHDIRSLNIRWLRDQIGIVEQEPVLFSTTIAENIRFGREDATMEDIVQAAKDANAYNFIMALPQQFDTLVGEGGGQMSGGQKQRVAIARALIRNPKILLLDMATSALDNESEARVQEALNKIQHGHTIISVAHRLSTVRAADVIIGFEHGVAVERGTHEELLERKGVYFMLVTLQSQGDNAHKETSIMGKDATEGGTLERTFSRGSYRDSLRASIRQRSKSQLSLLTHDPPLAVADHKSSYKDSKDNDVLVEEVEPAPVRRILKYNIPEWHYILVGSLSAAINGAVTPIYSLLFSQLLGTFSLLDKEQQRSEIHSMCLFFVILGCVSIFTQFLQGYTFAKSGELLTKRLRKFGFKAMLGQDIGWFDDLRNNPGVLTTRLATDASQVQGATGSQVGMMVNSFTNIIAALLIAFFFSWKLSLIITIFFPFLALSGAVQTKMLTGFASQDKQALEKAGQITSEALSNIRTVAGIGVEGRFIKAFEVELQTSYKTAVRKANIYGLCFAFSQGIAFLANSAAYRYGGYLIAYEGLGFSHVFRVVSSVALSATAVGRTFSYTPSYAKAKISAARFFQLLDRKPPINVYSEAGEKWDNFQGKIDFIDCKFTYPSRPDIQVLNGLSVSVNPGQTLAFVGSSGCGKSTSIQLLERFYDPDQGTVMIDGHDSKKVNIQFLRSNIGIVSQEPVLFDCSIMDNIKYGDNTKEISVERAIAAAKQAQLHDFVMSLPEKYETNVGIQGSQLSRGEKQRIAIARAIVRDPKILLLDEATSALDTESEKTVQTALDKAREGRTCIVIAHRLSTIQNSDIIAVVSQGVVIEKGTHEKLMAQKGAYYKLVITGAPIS
Description: (§1) Inside-out membrane vesicles (5 mg protein/mL), prepared from insect cells expressing human multidrug resistance-associated protein (MRP) 2, MRP3, MRP4, breast cancer resistance protein (BCRP), bile salt export pump (BSEP), and multidrug resistance protein (MDR) one and rat Mrp2, Mrp4, Bcrp, and Bsep, and vesicles (5 mg protein/mL; prepared from the insect cells expressing no ABC transporter; serving as negative control) were obtained from Genomembrane (Kanazawa, Japan).
(§2) The test Danshen compounds at 100 µM final concentration were separately incubated with the membrane vesicles for 10 min. Buffer C (50 mM MOPS-tris, 70 mM KCl, 7.5 mM MgCl2, pH 7.0) was used for preincubation and incubation, while buffer D (40 mM MOPS-tris, 70 mM KCl, pH 7.0) was used for vesicle washing. The transport rate (pmol/mg protein/min) of the test Danshen compound was calculated using Equation (2): Transport=(CV×VV)/T/WV (2) where C V, V V, T, and W V represent concentration of the compound in vesicular lysates supernatant (μM), volume of the lysates (μL), incubation time (10 min), and amount of vesicle protein amount per well (0.05 mg), respectively. Differential transport of the test Danshen compound between ATP-containing vesicles and AMP-containing vesicles was defined as net transport ratio (TransportATP/TransportAMP ratio). […] All the incubation samples were analyzed by liquid chromatography/mass spectrometry.

human MRP3 = human MRP3 (Homo sapiens, UniProt O15438); assay: Vesicular transport assay, inside-out membrane vesicles expressing human MRP3; conditions: 10 min
human MRP3, sequence (O15438 whole entry): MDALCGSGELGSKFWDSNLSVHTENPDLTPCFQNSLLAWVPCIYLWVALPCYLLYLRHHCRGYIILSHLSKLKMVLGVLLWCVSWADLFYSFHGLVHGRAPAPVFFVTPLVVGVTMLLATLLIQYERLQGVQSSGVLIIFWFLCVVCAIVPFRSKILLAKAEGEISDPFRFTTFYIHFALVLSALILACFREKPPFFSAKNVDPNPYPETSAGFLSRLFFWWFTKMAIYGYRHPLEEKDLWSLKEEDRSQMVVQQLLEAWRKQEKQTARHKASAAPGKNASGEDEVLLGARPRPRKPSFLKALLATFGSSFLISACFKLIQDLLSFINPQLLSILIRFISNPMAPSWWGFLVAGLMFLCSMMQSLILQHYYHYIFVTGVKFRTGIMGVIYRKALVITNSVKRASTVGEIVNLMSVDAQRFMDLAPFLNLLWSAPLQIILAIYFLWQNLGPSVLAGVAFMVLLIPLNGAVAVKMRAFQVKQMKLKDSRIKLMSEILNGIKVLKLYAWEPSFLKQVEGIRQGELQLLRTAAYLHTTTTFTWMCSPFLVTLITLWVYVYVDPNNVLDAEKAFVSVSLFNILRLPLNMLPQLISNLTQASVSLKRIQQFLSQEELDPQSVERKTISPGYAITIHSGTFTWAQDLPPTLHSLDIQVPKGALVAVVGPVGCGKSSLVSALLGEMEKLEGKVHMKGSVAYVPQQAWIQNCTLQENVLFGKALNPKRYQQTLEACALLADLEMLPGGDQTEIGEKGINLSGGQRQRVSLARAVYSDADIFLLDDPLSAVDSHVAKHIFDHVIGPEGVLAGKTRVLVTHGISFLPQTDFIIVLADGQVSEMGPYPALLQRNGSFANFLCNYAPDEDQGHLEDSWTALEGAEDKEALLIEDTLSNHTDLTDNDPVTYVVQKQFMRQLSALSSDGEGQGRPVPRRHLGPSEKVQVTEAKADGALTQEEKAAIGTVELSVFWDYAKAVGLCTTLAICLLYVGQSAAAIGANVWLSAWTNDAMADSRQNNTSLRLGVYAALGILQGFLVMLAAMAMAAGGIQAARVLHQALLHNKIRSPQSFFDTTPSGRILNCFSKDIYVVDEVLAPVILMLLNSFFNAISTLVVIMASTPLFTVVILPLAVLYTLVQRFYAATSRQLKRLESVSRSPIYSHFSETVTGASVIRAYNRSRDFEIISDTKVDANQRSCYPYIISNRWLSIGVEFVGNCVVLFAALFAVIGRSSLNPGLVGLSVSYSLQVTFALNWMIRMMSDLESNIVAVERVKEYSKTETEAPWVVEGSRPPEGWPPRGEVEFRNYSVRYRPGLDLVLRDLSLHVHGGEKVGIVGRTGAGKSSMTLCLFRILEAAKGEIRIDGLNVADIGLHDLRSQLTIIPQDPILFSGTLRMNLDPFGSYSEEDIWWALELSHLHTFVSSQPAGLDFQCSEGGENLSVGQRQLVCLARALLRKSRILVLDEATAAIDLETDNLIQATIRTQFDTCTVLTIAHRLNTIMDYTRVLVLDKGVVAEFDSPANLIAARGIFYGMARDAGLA
Description: as §1, §2

[1] = Danshen phenolic acid at 100 μM final concentration, rat Bsep vesicles
[2] = Danshen phenolic acid at 100 μM final concentration, human MRP3 vesicles

TransportATP/TransportAMP ratio (net transport ratio) (human MRP3; [2]): 1.72 ± 0.28
Compound: O=C(/C=C/c1ccc(O)c2c1[C@H](C(=O)O)[C@@H](c1ccc(O)c(O)c1)O2)O[C@H](Cc1ccc(O)c(O)c1)C(=O)O [Lithospermic acid, lithospermic acid]
TransportATP/TransportAMP ratio (net transport ratio) (rat Bsep; [1]): 1.69 ± 0.37

Compound: O=C(O)c1ccc(O)c(O)c1 [Protocatechuic acid, protocatechuic acid]
TransportATP/TransportAMP ratio (net transport ratio) (rat Bsep; [1]): 1.13 ± 0.17
TransportATP/TransportAMP ratio (net transport ratio) (human MRP3; [2]): 1.25 ± 0.08

Compound: O=C(/C=C/c1ccc(O)c(O)c1)O[C@H](Cc1ccc(O)c(O)c1)C(=O)O [Rosmarinic acid, rosmarinic acid]
TransportATP/TransportAMP ratio (net transport ratio) (rat Bsep; rat, 100 μM, pH 7): 1.39 ± 0.36
TransportATP/TransportAMP ratio (net transport ratio) (human MRP3; human, 100 μM, pH 7): 1.38 ± 0.01

Compound: O=C(/C=C/c1ccc(O)c(O)c1/C=C/c1ccc(O)c(O)c1)O[C@H](Cc1ccc(O)c(O)c1)C(=O)O [Salvianolic acid A, salvianolic acid A]
TransportATP/TransportAMP ratio (net transport ratio) (rat Bsep; rat, 100 μM, pH 7): 0.75 ± 0.12
TransportATP/TransportAMP ratio (net transport ratio) (human MRP3; human, 100 μM, pH 7): 1.54 ± 0.23

TransportATP/TransportAMP ratio (net transport ratio) (human MRP3; [2]): 1.35 ± 0.30
Compound: O=C(O)Cc1c(/C=C/C(=O)O[C@H](Cc2ccc(O)c(O)c2)C(=O)O)ccc(O)c1O [Salvianolic acid D, salvianolic acid D]
TransportATP/TransportAMP ratio (net transport ratio) (rat Bsep; [1]): 1.09 ± 0.23

Compound: salvianolic acid B
TransportATP/TransportAMP ratio (net transport ratio) (rat Bsep; [1]): 1.52 ± 0.67
TransportATP/TransportAMP ratio (net transport ratio) (human MRP3; [2]): 1.47 ± 0.33
